The source made the active and inactive calls. Some results are limits rather than exact numbers.

Series [1] concerns the target T1, Mushroom tyrosinase (Agaricus bisporus, UniProt O42713+Q00024+C7FF04+C7FF05).
Description: Inhibition of mushroom tyrosinase diphenolase activity using L-dopamine as substrate preincubated for 10 mins followed by substrate addition and measured after 20 mins by absorbance based assay
The target of series [2] is T1, Mushroom tyrosinase. The source holds these as a separate data set.
Description: Inhibition of mushroom tyrosinase monophenolase activity using L-tyrosine as substrate preincubated for 10 mins followed by substrate addition and measured after 20 mins by absorbance based assay
A further series deals with T2, Tyrosinase (Homo sapiens, UniProt P14679).
T2 sequence (P14679 whole entry): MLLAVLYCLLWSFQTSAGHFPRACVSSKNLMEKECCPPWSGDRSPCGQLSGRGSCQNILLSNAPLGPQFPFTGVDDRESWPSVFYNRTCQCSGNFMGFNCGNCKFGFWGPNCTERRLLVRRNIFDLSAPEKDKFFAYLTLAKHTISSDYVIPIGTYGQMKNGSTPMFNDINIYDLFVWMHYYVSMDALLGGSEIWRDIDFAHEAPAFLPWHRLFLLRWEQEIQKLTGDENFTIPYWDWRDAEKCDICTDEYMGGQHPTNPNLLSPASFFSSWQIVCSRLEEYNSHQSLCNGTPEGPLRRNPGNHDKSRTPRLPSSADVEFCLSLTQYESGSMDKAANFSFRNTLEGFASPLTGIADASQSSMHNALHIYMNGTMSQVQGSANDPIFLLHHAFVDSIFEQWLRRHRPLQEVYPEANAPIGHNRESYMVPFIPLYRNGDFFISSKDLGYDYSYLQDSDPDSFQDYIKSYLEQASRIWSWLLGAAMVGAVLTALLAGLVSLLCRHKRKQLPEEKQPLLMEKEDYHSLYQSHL
The experiment in a line: Binding affinity to tyrosinase (unknown origin) assessed as dissociation constant by SPR analysis. A general note: SPR reads the build-up and loss of mass on a sensor chip optically.

Series [3] is described as follows: Metabolic stability in human liver microsomes assessed as hepatic extraction ratio at 1.5 uM preincubated for 5 mins followed by NADPH addition and measured after 10 mins by LC/MS analysis. It is filed as ADME, Microsome. Conditions: time 15 min, read-out: ERH. (Liver microsomes are vesicles of endoplasmic reticulum, rich in cytochrome P450 enzymes.)
Series [4] in a line: Metabolic stability in human plasma assessed as half-life at 100 uM incubated for 120 mins by LC/MS analysis. The series is classed as ADME, cell-free.
For series [5] the following is noted: zebrafish, in vivo, 45 h.
Description: Toxicity in wildtype AB zebrafish assessed as minimum toxic concentration measured after 45 hrs
Series [6] can be described thus: Metabolic stability in human liver microsomes assessed as intrinsic clearance at 1.5 uM preincubated for 5 mins followed by NADPH addition and measured after 10 mins by LC/MS analysis. As to conditions: time 15 min, read-out: CLH. The series is classed as ADME, Microsome.
Series [7] is described as follows: Metabolic stability in human plasma assessed as compound remaining at 100 uM incubated for 120 mins by LC/MS analysis. The series is classed as ADME, cell-free. As to conditions: read-out: Stability.
Series [8] is described as follows: Metabolic stability in human liver microsomes assessed as compound remaining at 1.5 uM incubated for 45 mins by LC/MS analysis. The series is classed as ADME, Microsome. As to conditions: read-out: Stability.
The nature of series [9]: Metabolic stability in human liver microsomes assessed as half-life at 1.5 uM preincubated for 5 mins followed by NADPH addition and measured after 10 mins by LC/MS analysis. Conditions: time 15 min. The series is classed as ADME, Microsome.
Series [10] is described as follows: Toxicity in wildtype AB zebrafish assessed as effect on phenotype at 1 to 5 microM incubated for 45 hrs by anatomic microscopic analysis. As to conditions: in vivo, dose 1-5 µM. More on the design: species or system Danio rerio.
The species named for series [11] is Danio rerio. Description: Anti-pigmentation activity in wildtype AB zebrafish assessed as melanin looseness in head at 5 uM incubated for 45 hrs by anatomical microscopic analysis. The series is classed as functional, organism-based.
Series [12] in a line: Toxicity in wildtype AB zebrafish assessed as effect on growth at 1 to 5 microM incubated for 45 hrs by anatomic microscopic analysis. More on the design: species or system Danio rerio. Conditions: in vivo, dose 1-5 µM.
The nature of series [13]: Toxicity in wildtype AB zebrafish assessed as effect on phenotype at 10 to 50 microM incubated for 45 hrs by anatomic microscopic analysis. Set-up: species or system Danio rerio. Conditions: in vivo, dose 10-50 µM.
Series [14] is described as follows: Toxicity in wildtype AB zebrafish assessed as effect on growth at 10 to 50 microM incubated for 45 hrs by anatomic microscopic analysis. Set-up: species or system Danio rerio. Conditions: in vivo, dose 10-50 µM.
The species entered for series [15] is Danio rerio. Description: Anti-pigmentation activity in wildtype AB zebrafish assessed as depigmentation at 5 uM incubated for 45 hrs by anatomical microscopic analysis. It is filed as functional.
The species named for series [16] is Danio rerio. Description: Anti-pigmentation activity in wildtype AB zebrafish assessed as melanin reduction in head at 5 uM incubated for 45 hrs by anatomical microscopic analysis. It is filed as functional, organism-based.

On to `Cc1ccc(NC(=O)CCC(=O)N2CCCN(C/C=C/c3ccccc3)CC2)c(C)c1`, for which the IC50 (as a rule, the midpoint of a concentration-inhibition curve) at Mushroom tyrosinase [1] is over 800 µM; against Mushroom tyrosinase [2], 681.3 µM.
The like results for `Cc1ccc(NC(=O)CCC(=O)Nc2cnn(C/C=C/c3ccccc3)c2)c(C)c1` were, in that order, over 800 µM and over 800 µM.
The like results for `Cc1cc(Cl)ccc1NC(=O)CN1CCCN(C/C=C/c2ccccc2)CC1` were, in that order, over 800 µM and over 800 µM.
In the same order, the values of `Cc1ccc(NC(=O)CCN2CCCN(C/C=C/c3ccccc3)CC2)cc1C` are over 800 µM and over 800 µM.
For `Cc1ccc(/C=C/CN2CCN(C(=O)CCCC(=O)Nc3ccccn3)CC2)cc1`, the IC50 is 329.55 µM against Mushroom tyrosinase [1] and 192.93 µM against Mushroom tyrosinase [2].
For the molecule `Cc1ccc(F)cc1NC(=O)CCN1CCCN(C/C=C/c2ccccc2)CC1`, the values for the IC50 against Mushroom tyrosinase [1] and against Mushroom tyrosinase [2] were over 800 µM and 639.85 µM, respectively.
In the same order, the values of `Cc1ccc(C)c(NC(=O)CCN2CCCN(C/C=C/c3ccccc3)CC2)c1` are 555.4 µM and 234.2 µM.
In the same order, the values of `Cc1cccc(C)c1NC(=O)CCCN1CCCN(C/C=C/c2ccccc2)CC1` are over 800 µM and 248.7 µM.
The like results for `Cc1ccc(NC(=O)CC(=O)N2CCCN(C/C=C/c3ccccc3)CC2)c(C)c1` were, in that order, over 800 µM and 732.35 µM.
On to `Cc1cccc(C)c1NC(=O)CN1CCN(C/C=C/c2ccccc2)CC1`, for which the IC50 against Mushroom tyrosinase [1] is 244.6 µM; at Mushroom tyrosinase [2], 88.01 µM.
Take `Cc1cc(C)c(NC(=O)CCN2CCCN(C/C=C/c3ccccc3)CC2)c(C)c1`: the IC50 is over 800 µM at Mushroom tyrosinase [1] and 465.1 µM against Mushroom tyrosinase [2].
In the same order, the values of `Cc1ccc(C)c(NC(=O)CN2CCCN(C/C=C/c3ccccc3)CC2)c1` are over 800 µM and over 800 µM.
In the same order, the values of `Cc1ccc(C)c(NC(=O)CCC(=O)N2CCCN(C/C=C/c3ccccc3)CC2)c1` are over 800 µM and 393.05 µM.
In the same order, the values of `Cc1ccc(/C=C/CN2CCN(C(=O)CCC(=O)Nc3ccc(O)cc3)CC2)cc1` are 131.77 µM and 40.34 µM.
For `Cc1ccc(NC(=O)CCN2CCCN(C/C=C/c3ccccc3)CC2)c(C)c1`, the IC50 against Mushroom tyrosinase [1] was 465.1 µM; against Mushroom tyrosinase [2] it was 255.4 µM.
In the same order, the values of `Cc1ccc(NC(=O)CCN2CCCN(C/C=C/c3ccccc3)CC2)cc1` are 536.05 µM and 338.4 µM.
For the molecule `Cc1ccc(C)c(NC(=O)CC(=O)N2CCCN(C/C=C/c3ccccc3)CC2)c1`, the figures for the IC50 against Mushroom tyrosinase [1] and on Mushroom tyrosinase [2] were over 800 µM and 744.95 µM, respectively.
The like results for `Cc1ccc(/C=C/CN2CCN(C(=O)CCC(=O)Nc3cccc(O)c3)CC2)cc1` were, in that order, over 800 µM and 217.17 µM.
With `Cc1ccc(/C=C/CN2CCN(C(=O)CCC(=O)Nc3ccccc3O)CC2)cc1`, on Tyrosinase, the Kd (in general, a measure of binding affinity in units of concentration) is 198 µM. For the same molecule, the results for the IC50 against Mushroom tyrosinase [1] and against Mushroom tyrosinase [2] were 31.01 µM and 11.49 µM, respectively. Also, the hepatic extraction ratio at 10 min, 1.5 µM in series [3] came to 0.759. Also, the half-life (commonly the time needed for the level to fall by half in the phase considered) at 100 µM in [4] was over 120 min. The molecule further had an MTC in series [5] of 5 µM. Also, in [6], the CLint scaled at 1.5 µM worked out at 65.2 mL/min/kg. In series [7], the remaining at 2 h, 100 µM is 94.6%. Also, the remaining at 0.75 h, 1.5 µM in series [8] was 28.1%. The half-life at 1.5 µM in [9] came out at 24.6 min.
Regarding `Cc1ccc(NC(=O)CCCN2CCN(C/C=C/c3ccccc3)CC2)c(C)c1`, the IC50 is over 800 µM at Mushroom tyrosinase [1] and 652.9 µM against Mushroom tyrosinase [2]. The Activity result in series [10] was “Non-Toxic”; in series [12], “Non-Toxic”; in [13] it was “Toxic”; in series [14], “Toxic”; in the series listed under Danio rerio [15], 9.98%. In series [5], this molecule yielded an MTC of 50 µM. Further, the outcome in the series filed under Danio rerio [11] and in the series listed under Danio rerio [16] was Active.
`Cc1ccccc1NC(=O)CN1CCCN(C/C=C/c2ccccc2)CC1`: the IC50 against Mushroom tyrosinase [1] and against Mushroom tyrosinase [2] was over 800 µM in each case.
For the molecule `Cc1ccc(NC(=O)CN2CCCN(C/C=C/c3ccccc3)CC2)c(C)c1`, the IC50 at Mushroom tyrosinase [1] and against Mushroom tyrosinase [2] was over 800 µM in each case.
Regarding `Cc1ccc(/C=C/CN2CCN(C(=O)CCC(=O)Nc3ccccc3C)CC2)cc1`, the results for the IC50 on Mushroom tyrosinase [1] and against Mushroom tyrosinase [2] were 204.3 µM and 173 µM, respectively.
